According to patent publication US20160201132A1, “GENE EXPRESSION BIOMARKERS OF LAQUINIMOD RESPONSIVENESS” (Teva Pharmaceutical Industries Ltd., priority 2013, published 2016):

Test system: PBMC of RRMS patients
Test: Gene expression microarray analysis (HG-U133A-2) of PBMC from RRMS patients treated with LAQ, ancillary study to ALLEGRO
Format: in vivo, human
Excerpt: The goal of this ancillary study was to characterize gene expression changes and corresponding biological mechanisms induced in PBMC of RRMS patients by LAQ treatment. According to ALLEGRO clinical trial inclusion criteria, 25 patients were randomly assigned to receive LAQ (n=13, age 38.8±2.3 years, female/male ratio: 8/5) or placebo (n=12, age 37.2±3.4 years, female/male ratio: 8/4).
Peripheral blood samples were obtained from RRMS patients at baseline before start of LAQ treatment or placebo, after 0, 1, 6 and 24 month of treatment (visit 0, 1, 6 and 7 according to ALLEGRO clinical trial protocol correspondently) for gene microarray analysis.
Briefly, 1) Peripheral blood mononuclear cells (PBMC) were obtained from RRMS patients that participated in ALLEGRO and were treated daily with 0.6 mg LAQ or placebo. PBMC were subjected for gene expression analysis (HU-133A-2-Affymatrix arrays) at baseline and at 1 and 6 months of LAQ treatment; 2) Data was analyzed by Partek Genomics Solution software. Most informative genes (MIGs) were defined as those that differentiated between groups with p<0.01. Gene functional annotation, enrichment and pathway analysis were performed by Ingenuity software. For each time point, genes that changed in placebo group were excluded from further analysis; and 3) Verification of LAQ related mechanism was performed by Western blot.
PBMC were extracted from 15 ml peripheral blood, separated by Ficoll-Hypaque gradient. Total RNA was extracted using both Trizol (Invitrogen, USA) and Phase-Lock-Gel columns (Eppendorf, Germany) including a DNase digestion step. RNA integrity was assessed by RNA Experion automated electrophoresis system (Bio-Rad Laboratories, Hercules, Calif.).
Probe synthesis using 3 μg total RNA, hybridization, detection, and scanning was performed according to the standard Affymetrix, Inc. USA protocols; cDNA was synthesized using the Two-Cycle cDNA Synthesis Kit (Affymetrix, Inc., USA), and in-vitro transcription performed with the GeneChip IVT Labeling Kit (Affymetrix, Inc., USA). The biotin-labeled IVT-RNA was hybridized to HG-U133A-2 arrays containing 18,400 gene transcripts, each corresponding to 14,500 well-annotated human genes, washed in a GeneChip Fluidics Station 450 (Hewlett Packard, USA, GeneArray-™ scanner G2500A) and scanned according to the manufacturer's protocol (Affymetrix, Inc., USA).
Data analysis was performed on Partek Genomics Solution software (www.partek.com; Partek Incorporated, St. Louis, Mo.). Expression values were computed from raw CEL files by applying the Robust Multi-Chip Average (RMA) background correction algorithm. RMA correction included: 1) values background correction; 2) quintile normalization; 3) log 2 transformation; and 4) median polish summarization. The ANOVA, Repeated Measures and correlation analysis implicated in Partek software ware applied to evaluate LAQ effects. Most informative genes MIGs were defined as those that differentiated between experimental groups with p<0.01. All p-values were calculated for False Discovery Rate (FDR) multiple test correction at p=0.05.
Additionally, significance of individual genes was tested by parametric T-test and non parametric Mann-Whitney test using Bootstrapping approach based on repeated permutations of the data with 5% FDR for multiple testing.
Gene functional annotation, enrichment, and pathway analyses to identify the leading biological pathways that operated under LAQ treatment were performed by Ingenuity Pathways Analysis software (www.ingenuity.com).
ANOVA analysis was used to compare PBMC gene expression after 1, 6 or 24 month of LAQ treatment with baseline gene expression.
For each time point inventors performed analysis source of variation in dataset. (FIG. 1). Age, gender and batch effects were considered as confounders regarding LAQ or Placebo related changes. For each time point genes associated with Placebo effect were evaluated and excluded from further analysis. […]

CCN(C(=O)c1c(O)c2c(Cl)cccc2n(C)c1=O)c1ccccc1 [LAQ, 5-chloro-N-ethyl-4-hydroxy-1-methyl-2-oxo-N-phenyl-1,2-dihydroquinoline-3-carboxamide]
Fold-Change (4.0 vs. 0.0) (gene KCND3): −1.184 | Fold-Change (4.0 vs. 0.0) (gene KRT5, after six months of LAQ): −1.285 | Fold-Change (4.0 vs. 0.0) (gene LAMA3): −1.181 | Fold-Change (4.0 vs. 0.0) (gene LAMC2): −1.18 | Fold-Change (4.0 vs. 0.0) (gene MALL, after six months of LAQ): −1.286 | Fold-Change (4.0 vs. 0.0) (gene MGC2889): −1.18 | Fold-Change (4.0 vs. 0.0) (gene MGC31957): −1.183 | Fold-Change (4.0 vs. 0.0) (gene MORN1): −1.178 | Fold-Change (4.0 vs. 0.0) (gene MYOZ1): −1.183 | Fold-Change (4.0 vs. 0.0) (gene NAGLU): −1.184 | Fold-Change (4.0 vs. 0.0) (gene NECAB2): −1.179 | Fold-Change (4.0 vs. 0.0) (gene NNAT): −1.184 | Fold-Change (4.0 vs. 0.0) (gene NOVA2): −1.18 | Fold-Change (4.0 vs. 0.0) (gene NOX1): −1.179 | Fold-Change (4.0 vs. 0.0) (gene NPR1): −1.1842 | Fold-Change (4.0 vs. 0.0) (gene NR1I2): −1.182 | Fold-Change (4.0 vs. 0.0) (gene NTRK2): −1.183 | Fold-Change (4.0 vs. 0.0) (gene OR1A2): −1.179 | Fold-Change (4.0 vs. 0.0) (gene OR2J2): −1.18 | Fold-Change (4.0 vs. 0.0) (gene OR3A3): −1.182 | Fold-Change (4.0 vs. 0.0) (gene PACRG): −1.182 | Fold-Change (4.0 vs. 0.0) (gene PAH): −1.182 | Fold-Change (4.0 vs. 0.0) (gene PARD3, after six months of LAQ): −1.288 | Fold-Change (4.0 vs. 0.0) (gene PDX1): −1.179 | Fold-Change (4.0 vs. 0.0) (gene PKNOX2): −1.183 | Fold-Change (4.0 vs. 0.0) (gene POLQ): −1.179 | Fold-Change (4.0 vs. 0.0) (gene POPDC3): −1.184 | Fold-Change (4.0 vs. 0.0) (gene PRDM11): −1.183 | Fold-Change (4.0 vs. 0.0) (gene PRKCE): −1.179 | Fold-Change (4.0 vs. 0.0) (gene PRKG1): −1.181 | Fold-Change (4.0 vs. 0.0) (gene PRSS7): −1.18 | Fold-Change (4.0 vs. 0.0) (gene PURA): −1.179 | Fold-Change (4.0 vs. 0.0) (gene RAB11B): −1.18 | Fold-Change (4.0 vs. 0.0) (gene RAD51): −1.18 | Fold-Change (4.0 vs. 0.0) (gene RELN): −1.18 | Fold-Change (4.0 vs. 0.0) (gene RET): −1.183 | Fold-Change (4.0 vs. 0.0) (gene RUNX2): −1.177 | Fold-Change (4.0 vs. 0.0) (gene SERPINB3): −1.178 | Fold-Change (4.0 vs. 0.0) (gene SLC6A11): −1.181 | Fold-Change (4.0 vs. 0.0) (gene SLC25A10): −1.182 | Fold-Change (4.0 vs. 0.0) (gene SLC30A3): −1.184 | Fold-Change (4.0 vs. 0.0) (gene SLC37A4): −1.181 | Fold-Change (4.0 vs. 0.0) (gene SLC39A2): −1.178 | Fold-Change (4.0 vs. 0.0) (gene SLCO5A1): −1.181 | Fold-Change (4.0 vs. 0.0) (gene SOD3): −1.181 | Fold-Change (4.0 vs. 0.0) (gene SOX15, after six months of LAQ): −1.285 | Fold-Change (4.0 vs. 0.0) (gene STRA6): −1.181 | Fold-Change (4.0 vs. 0.0) (gene TACR2): −1.18 | Fold-Change (4.0 vs. 0.0) (gene TRIO): −1.1816 | Fold-Change (4.0 vs. 0.0) (gene TTLL5): −1.182 | Fold-Change (4.0 vs. 0.0) (gene TTYH1): −1.177 | Fold-Change (4.0 vs. 0.0) (gene VPS37B, after six months of LAQ): −1.288 | Fold-Change (4.0 vs. 0.0) (gene VSNL1): −1.18 | Fold-Change (4.0 vs. 0.0) (gene XPNPEP2): −1.183 | Fold-Change (4.0 vs. 0.0) (gene ZNF215): −1.182 | Fold-Change (4.0 vs. 0.0) (gene ZNF280B): −1.177 | Fold-Change (4.0 vs. 0.0) (gene ZNF484): −1.1781 | suppressed molecules associated with different mechanisms of inflammatory response (of 354 genes affected after 1 month of treatment): 50 | down-regulated genes related to cellular movement mechanisms (of 1564 genes that passed FDR, more than 6 months (combined 6 and 24 months)): 305 | share of significantly changed genes that were down regulated (one month of treatment): 98% | genes related to suppression of Cellular movement functions (out of 1562 genes, 6 months of treatment): 260 | share of significantly changed genes that were down regulated (six months of treatment): 99%
